Data on 26 molecules can be found in US12509454B2, “Thiadiazolyl derivatives” (IDEAYA Biosciences, Inc., priority 2019, dated 2025).

The experiment deals with Pol theta (1-899) (Homo sapiens (Human), UniProt O75417). Briefly: Pol theta ATPase activity, NADH oxidation-coupled enzymatic assay. In kind it is biochemical. Particulars: Pol theta (1-899) 10 nM, ATP, dT50 ssDNA, absorbance 340 nm, 10-point dilution series; read-out: ATPase NADH coupling:Standard Screening:hPolQ IC50. As for the experimental part: The ability of the compounds of Formula (I) to inhibit ATPase activity of Pol theta (1-899) was determined using the assay described below.
Pol Theta ATPase activity was determined by measuring the rate of ATP turn over in a NADH oxidation-coupled enzymatic assay. 10-point dilution series of compounds were used in a 384 well format for the inhibition assays. Pol theta (1-899) (10 nM) in assay buffer (20 mM Tris HCl (pH 7.80), 80 mM KCl, 10 mM MgCl2, 1 mM DTT, 0.01% BSA, 0.01% Tween, 5% glycerol) was transferred to the test wells (20 μL), except the low control wells (20 μL of assay buffer was added to the low control wells). The plate was then incubated at room temperature for 15 min. An equal volume (20 μL) of 100 μM ATP, 300 nM dT50 (single-stranded DNA (ssDNA) containing 50 thymine bases), 300 μM NADH, 6 mM PEP, 10 U/mL lactate dehydrogenase and 20 U/mL pyruvate kinase in assay buffer was added to all the test wells. The plate was then centrifuged at 1000 rpm for 1 min. The reaction was monitored for 30 min by measuring absorbance (λ=340 nm) in a Tecan Spark multimode plate reader every minute. The high control (DMSO with enzyme) with low absorbance intensity represents no inhibition of ATPase reaction while the low control (DMSO with buffer) with high absorbance intensity represents full inhibition of ATPase activity. Slope of the reaction progress curves were used to calculate the rate of ATP hydrolysis. The rates were used to determine the percent inhibition using a four-parameter inhibition model to generate IC50, Hill slope and max inhibition.

A value given as a limit tells only on which side of the number the result lay.

Chain of Pol theta (1-899) (O75417 1-899): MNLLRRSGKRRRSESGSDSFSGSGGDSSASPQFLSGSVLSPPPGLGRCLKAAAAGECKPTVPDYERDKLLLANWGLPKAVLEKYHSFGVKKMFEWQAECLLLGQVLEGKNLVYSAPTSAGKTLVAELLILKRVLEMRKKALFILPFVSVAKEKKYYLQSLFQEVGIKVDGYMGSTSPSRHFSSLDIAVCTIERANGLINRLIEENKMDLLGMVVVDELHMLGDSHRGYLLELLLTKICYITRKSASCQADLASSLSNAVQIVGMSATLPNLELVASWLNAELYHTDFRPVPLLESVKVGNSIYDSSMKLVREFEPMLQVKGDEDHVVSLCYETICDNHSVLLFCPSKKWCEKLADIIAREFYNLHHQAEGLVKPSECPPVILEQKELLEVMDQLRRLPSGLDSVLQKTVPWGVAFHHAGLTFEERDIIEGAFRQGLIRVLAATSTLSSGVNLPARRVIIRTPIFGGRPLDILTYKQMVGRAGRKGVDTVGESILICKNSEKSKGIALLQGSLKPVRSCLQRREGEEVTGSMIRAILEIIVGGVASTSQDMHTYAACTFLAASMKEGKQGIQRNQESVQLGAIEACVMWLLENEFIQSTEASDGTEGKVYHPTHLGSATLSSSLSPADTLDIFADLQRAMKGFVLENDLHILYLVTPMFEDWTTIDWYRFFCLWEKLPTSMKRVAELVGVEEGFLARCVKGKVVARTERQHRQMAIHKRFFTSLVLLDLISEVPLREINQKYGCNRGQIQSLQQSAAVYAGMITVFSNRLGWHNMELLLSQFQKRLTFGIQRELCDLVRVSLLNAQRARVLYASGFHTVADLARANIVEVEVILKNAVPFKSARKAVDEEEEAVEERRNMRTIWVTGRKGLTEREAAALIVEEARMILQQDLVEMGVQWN

For orientation: IC50 means the point on the concentration scale where inhibition reaches its midpoint. In the case of `O=C(Nc1nnc(OCc2cnc(Cl)cn2)s1)c1cccnc1N1CCOCC1` [Example 19, N-[5-[(5-chloropyrazin-2-yl)methoxy]-1,3,4-thiadiazol-2-yl]-2-(morpholin-4-yl)pyridine-3-carboxamide], the IC50 lay in the range of 1000 to 10000 nM.

As for `NC(=O)c1ccc(C(=O)Nc2nnc(OCc3ccc(Cl)cc3)s2)c(N2CCOCC2)n1` [Example 21, N^5-(5-((4-chlorobenzyl)oxy)-1,3,4-thiadiazol-2-yl)-6-morpholinopyridine-2,5-dicarboxamide], the IC50 lay in the range of 1000 to 10000 nM.

Take `C[C@@H]1COCCN1c1ncccc1C(=O)Nc1nnc(OCc2ccc(Cl)cn2)s1` [Example 22, (R)—N-(5-((5-chloropyridin-2-yl)methoxy)-1,3,4-thiadiazol-2-yl)-2-(3-methylmorpholino)nicotinamide]: the concentration for half-maximal inhibition (IC50) lay in the range of 1000 to 10000 nM. `CS(=O)(=O)N1CCN(c2ncccc2C(=O)Nc2nnc(OCc3ccc(Cl)cn3)s2)CC1` [Example 23, N-(5-((5-chloropyridin-2-yl)methoxy)-1,3,4-thiadiazol-2-yl)-2-(4-(methylsulfonyl)piperazin-1-yl)nicotinamide]: the IC50 was in the range of 1000 to 10000 nM.

`O=C(Nc1nnc(OCc2ccc(Cl)cn2)s1)c1ccnn1-c1ccccc1` [Example 24, N-(5-((5-chloropyridin-2-yl)methoxy)-1,3,4-thiadiazol-2-yl)-1-phenyl-1H-pyrazole-5-carboxamide]: the IC50 lay within 1000 to 10000 nM. Then `O=C(Nc1nnc(OCc2ccc(Cl)cn2)s1)c1cnnn1-c1ccccc1` [Example 25, N-(5-((5-chloropyridin-2-yl)methoxy)-1,3,4-thiadiazol-2-yl)-1-phenyl-1H-1,2,3-triazole-5-carboxamide], with 1000 to 10000 nM; and `O=C(Nc1nnc(OCc2ccc(Cl)cn2)s1)c1cncn1-c1ccccc1Cl` [Example 26, 3-(2-chlorophenyl)-N-[5-[(5-chloropyridin-2-yl)methoxy]-1,3,4-thiadiazol-2-yl]imidazole-4-carboxamide], with 200 to 500 nM.

Regarding `O=C1CN(c2ncccc2C(=O)Nc2nnc(OCc3ccc(Cl)cc3)s2)CCN1` [Example 27, N-(5-((4-chlorobenzyl)oxy)-1,3,4-thiadiazol-2-yl)-2-(3-oxopiperazin-1-yl)nicotinamide], the IC50 lay in the range of 200 to 500 nM. As to `CN(C)C(=O)N1CCN(c2ncccc2C(=O)Nc2nnc(OCc3ccc(Cl)cc3)s2)CC1` [Example 28, 4-(3-((5-((4-chlorobenzyl)oxy)-1,3,4-thiadiazol-2-yl)carbamoyl)pyridin-2-yl)-N,N-dimethylpiperazine-1-carboxamide], the IC50 was in the range of 1000 to 10000 nM. Then `O=C(Nc1nnc(OCc2ccc(Cl)cc2)s1)c1cccnc1N1CCOC2(CC2)C1` [Example 30, N-(5-((4-chlorobenzyl)oxy)-1,3,4-thiadiazol-2-yl)-2-(4-oxa-7-azaspiro[2.5]octan-7-yl)nicotinamide], with at most 200 nM. In the case of `COc1ccc(-n2cncc2C(=O)Nc2nnc(OCc3ccc(Cl)cc3)s2)c(OC)c1` [Example 31, N-(5-((4-chlorobenzyl)oxy)-1,3,4-thiadiazol-2-yl)-1-(2,4-dimethoxyphenyl)-1H-imidazole-5-carboxamide], the IC50 was at most 200 nM.

In the case of `N#Cc1ccc(C(=O)Nc2nnc(OCc3ccc(Cl)cn3)s2)c(N2CCOCC2)n1` [Example 32], the IC50 lay in the range of 200 to 500 nM. On to `N#Cc1cnc(N2CCOCC2)c(C(=O)Nc2nnc(OCc3ccc(Cl)cn3)s2)c1` [Example 33, N-(5-((5-chloropyridin-2-yl)methoxy)-1,3,4-thiadiazol-2-yl)-5-cyano-2-morpholinonicotinamide], for which the IC50 lay within 500 to 1000 nM.

Regarding `COc1cc(COc2nnc(NC(=O)c3cccnc3N3CCOCC3)s2)ccc1Cl` [Example 34, N-(5-((4-chloro-3-methoxybenzyl)oxy)-1,3,4-thiadiazol-2-yl)-2-morpholinonicotinamide], the IC50 lay within 1000 to 10000 nM. Then `N#Cc1cc(N2CCOCC2)c(C(=O)Nc2nnc(OCc3ccc(Cl)cc3)s2)cn1` [Example 35, N-(5-((4-chlorobenzyl)oxy)-1,3,4-thiadiazol-2-yl)-6-cyano-4-morpholinonicotinamide], with at most 200 nM; and `COc1cc(N2CCOCC2)c(C(=O)Nc2nnc(OCc3ccc(Cl)cn3)s2)cn1` [Example 36, N-(5-((5-chloropyridin-2-yl)methoxy)-1,3,4-thiadiazol-2-yl)-6-methoxy-4-morpholinonicotinamide], with 1000 to 10000 nM; and `O=C(Nc1nnc(OCc2ccc(Cl)cn2)s1)c1cccnc1N1CCS(=O)(=O)CC1` [Example 37, N-(5-((5-chloropyridin-2-yl)methoxy)-1,3,4-thiadiazol-2-yl)-2-(1,1-dioxidothiomorpholino)nicotinamide], with 1000 to 10000 nM.

`O=C(Nc1nnc(OCc2ccc(Cl)cn2)s1)c1cncn1-c1ccccn1` [Example 38, N-(5-((5-chloropyridin-2-yl)methoxy)-1,3,4-thiadiazol-2-yl)-1-(pyridin-2-yl)-1H-imidazole-5-carboxamide]: the IC50 was in the range of 1000 to 10000 nM. The result for `O=C(Nc1nnc(OCc2ccc(Cl)cn2)s1)c1cccnc1N1CCC(F)(F)CC1` [Example 39, N-(5-((5-chloropyridin-2-yl)methoxy)-1,3,4-thiadiazol-2-yl)-2-(4,4-difluoropiperidin-1-yl)nicotinamide] reads 1000 to 10000 nM; that for `O=C(Nc1nnc(OCc2ccc(Br)cc2)s1)c1cccnc1N1CCOCC1` [Example 40, N-(5-((4-bromobenzyl)oxy)-1,3,4-thiadiazol-2-yl)-2-morpholinonicotinamide], 200 to 500 nM; that for `O=C(Nc1nnc(OCc2ccc(Cl)cc2)s1)c1c[nH]c(=O)cc1N1CCOCC1` [Example 41, N-(5-((4-chlorobenzyl)oxy)-1,3,4-thiadiazol-2-yl)-4-morpholino-6-oxo-1,6-dihydropyridine-3-carboxamide or its tautomer N-(5-((4-chlorobenzyl)oxy)-1,3,4-thiadiazol-2-yl)-6-hydroxy-4-morpholinonicotinamide], 1000 to 10000 nM. The result for `O=C(Nc1nnc(OCc2ccc(Cl)cc2)s1)c1cncn1-c1ccccc1Cl` [Example 42, N-(5-((4-chlorobenzyl)oxy)-1,3,4-thiadiazol-2-yl)-1-(2-chlorophenyl)-1H-imidazole-5-carboxamide] reads at most 200 nM; that for `N#Cc1ccccc1-n1cncc1C(=O)Nc1nnc(OCc2ccc(Cl)cc2)s1` [Example 43, N-(5-((4-chlorobenzyl)oxy)-1,3,4-thiadiazol-2-yl)-1-(2-cyanophenyl)-1H-imidazole-5-carboxamide], 200 to 500 nM. With `N#Cc1ccc(C(=O)Nc2nnc(OCc3ccc(Cl)cc3)s2)c(N2CCOC3(CC3)C2)n1` [Example 44, N-(5-((4-chlorobenzyl)oxy)-1,3,4-thiadiazol-2-yl)-6-cyano-2-(4-oxa-7-azaspiro[2.5]octan-7-yl)nicotinamide], the IC50 was at most 200 nM. The result for `CN1CCN(c2ncccc2C(=O)Nc2nnc(OCc3ccc(Cl)cc3)s2)CC1=O` [Example 45, N-[5-[(4-chlorophenyl)methoxy]-1,3,4-thiadiazol-2-yl]-2-(4-methyl-3-oxopiperazin-1-yl)pyridine-3-carboxamide] reads 500 to 1000 nM; that for `O=C(Nc1nnc(OCc2ccc(C3CC3)cc2)s1)c1cccnc1N1CCOCC1` [Example 47, N-(5-((4-cyclopropylbenzyl)oxy)-1,3,4-thiadiazol-2-yl)-2-morpholinonicotinamide], 200 to 500 nM.
